Source: ChEMBL document CHEMBL3045472, “Synthesis and evaluation of some novel methylene-bridged aryl semicarbazones as potential anticonvulsant agents” (Med Chem Res, 2012)

Columns and labels:
Mus musculus [1] = assay: Anticonvulsant activity in pentylenetetrazole-induced Mus musculus albino (mouse) seizure model assessed as survival at 100 mg/kg, ip administered 30 min followed by pentylenetetrazole induction measured for 30 min relative to control; format: functional; conditions: 0.5 h, route intraperitoneal
Mus musculus [2] = assay: Anticonvulsant activity in pentylenetetrazole-induced Mus musculus albino (mouse) seizure model assessed as death time at 300 mg/kg, ip administered 30 min followed by pentylenetetrazole induction measured for 30 min (reference value: 416 +/- 58.2 secs); format: functional; conditions: route intraperitoneal
Mus musculus [3] = assay: Anticonvulsant activity in pentylenetetrazole-induced Mus musculus albino (mouse) seizure model assessed as survival at 300 mg/kg, ip administered 30 min followed by pentylenetetrazole induction measured for 30 min relative to control; format: functional; conditions: 0.5 h, route intraperitoneal
Mus musculus [4] = assay: Anticonvulsant activity in Mus musculus albino (mouse) assessed as decrease in pentylenetetrazole-induced total seizure time at 100 mg/kg, ip administered 30 min followed by pentylenetetrazole induction measured for 30 min (reference value: 9.9 +/- 1.3 secs); format: functional; conditions: route intraperitoneal
Mus musculus [5] = assay: Anticonvulsant activity in Mus musculus albino (mouse) assessed as protection against pentylenetetrazole-induced seizure at 100 mg/kg, ip administered 30 min followed by pentylenetetrazole induction measured for 30 min relative to control; format: functional; conditions: route intraperitoneal
Mus musculus [6] = assay: Anticonvulsant activity in Mus musculus albino (mouse) assessed as increase in onset of pentylenetetrazole-induced seizure at 300 mg/kg, ip administered 30 min followed by pentylenetetrazole induction measured for 30 min (reference value: 184 +/- 32 secs); format: functional; conditions: route intraperitoneal
Mus musculus [7] = assay: Anticonvulsant activity in pentylenetetrazole-induced Mus musculus albino (mouse) seizure model assessed as death time at 100 mg/kg, ip administered 30 min followed by pentylenetetrazole induction measured for 30 min (reference value: 416 +/- 58.2 secs); format: functional; conditions: route intraperitoneal
Mus musculus [8] = assay: Anticonvulsant activity in Mus musculus albino (mouse) assessed as decrease in pentylenetetrazole-induced total seizure time at 300 mg/kg, ip administered 30 min followed by pentylenetetrazole induction measured for 30 min (reference value: 9.9 +/- 1.3 secs); format: functional; conditions: route intraperitoneal
Mus musculus [9] = assay: Anticonvulsant activity in Mus musculus albino (mouse) assessed as protection against pentylenetetrazole-induced seizure at 300 mg/kg, ip administered 30 min followed by pentylenetetrazole induction measured for 30 min relative to control; format: functional; conditions: route intraperitoneal
Mus musculus [10] = assay: Anticonvulsant activity in Mus musculus albino (mouse) assessed as increase in onset of pentylenetetrazole-induced seizure at 100 mg/kg, ip administered 30 min followed by pentylenetetrazole induction measured for 30 min (reference value: 184 +/- 32 secs); format: functional; conditions: route intraperitoneal
Mus musculus [11] = assay: Anticonvulsant activity in Mus musculus albino (mouse) assessed as decrease in pentylenetetrazole-induced total seizure time at 50 mg/kg, ip administered 30 min followed by pentylenetetrazole induction measured for 30 min (reference value: 9.9 +/- 1.3 secs); format: functional; conditions: route intraperitoneal
Mus musculus [12] = assay: Anticonvulsant activity in Mus musculus albino (mouse) assessed as increase in onset of pentylenetetrazole-induced seizure at 50 mg/kg, ip administered 30 min followed by pentylenetetrazole induction measured for 30 min (reference value: 184 +/- 32 secs); format: functional; conditions: route intraperitoneal
Mus musculus [13] = assay: Neurotoxicity in Mus musculus albino (mouse) assessed as minimal motor impairment at 300 mg/kg, ip measured for 180 secs by rotorod test; format: toxicity, organism-based; set-up: dose 300 mg/kg, route intraperitoneal; conditions: in vivo, 0.05 h
Mus musculus [14] = assay: Anticonvulsant activity in pentylenetetrazole-induced Mus musculus albino (mouse) seizure model assessed as death time at 50 mg/kg, ip administered 30 min followed by pentylenetetrazole induction measured for 30 min (reference value: 416 +/- 58.2 secs); format: functional; conditions: route intraperitoneal
Mus musculus [15] = assay: Anticonvulsant activity in Mus musculus albino (mouse) assessed as protection against pentylenetetrazole-induced seizure at 50 mg/kg, ip administered 30 min followed by pentylenetetrazole induction measured for 30 min relative to control; format: functional; conditions: route intraperitoneal
Mus musculus [16] = assay: Anticonvulsant activity in pentylenetetrazole-induced Mus musculus albino (mouse) seizure model assessed as survival at 50 mg/kg, ip administered 30 min followed by pentylenetetrazole induction measured for 30 min relative to control; format: functional; conditions: 0.5 h, route intraperitoneal
Mus musculus [17] = assay: Anticonvulsant activity in Mus musculus albino (mouse) assessed as increase in onset of pentylenetetrazole-induced seizure at 220 mg/kg, ip administered 30 min followed by pentylenetetrazole induction measured for 30 min (reference value: 184 +/- 32 secs); format: functional; conditions: route intraperitoneal
Mus musculus [18] = assay: Anticonvulsant activity in pentylenetetrazole-induced Mus musculus albino (mouse) seizure model assessed as death time at 220 mg/kg, ip administered 30 min followed by pentylenetetrazole induction measured for 30 min (reference value: 416 +/- 58.2 secs); format: functional; conditions: route intraperitoneal
Mus musculus [19] = assay: Anticonvulsant activity in pentylenetetrazole-induced Mus musculus albino (mouse) seizure model assessed as survival at 220 mg/kg, ip administered 30 min followed by pentylenetetrazole induction measured for 30 min relative to control; format: functional; conditions: 0.5 h, route intraperitoneal
Mus musculus [20] = assay: Anticonvulsant activity in Mus musculus albino (mouse) assessed as decrease in pentylenetetrazole-induced total seizure time at 220 mg/kg, ip administered 30 min followed by pentylenetetrazole induction measured for 30 min (reference value: 9.9 +/- 1.3 secs); format: functional; conditions: route intraperitoneal
Mus musculus [21] = assay: Anticonvulsant activity in Mus musculus albino (mouse) assessed as protection against pentylenetetrazole-induced seizure at 220 mg/kg, ip administered 30 min followed by pentylenetetrazole induction measured for 30 min relative to control; format: functional; conditions: route intraperitoneal
Mus musculus [22] = assay: Neurotoxicity in Mus musculus albino (mouse) assessed as minimal motor impairment at 220 mg/kg, ip measured for 180 secs by rotorod test; format: toxicity, organism-based; set-up: dose 220 mg/kg, route intraperitoneal; conditions: in vivo, 0.05 h

Row | Structure (SMILES) | survival at 100 mg/kg (Mus musculus [1]) | Time (Mus musculus [2]) | survival at 300 mg/kg (Mus musculus [3]) | Time (Mus musculus [4]) | Activity (Mus musculus [5]) | Time (Mus musculus [6]) | Time (Mus musculus [7]) | Time (Mus musculus [8]) | Activity (Mus musculus [9]) | Time (Mus musculus [10]) | Time (Mus musculus [11]) | Time (Mus musculus [12]) | Time (Mus musculus [14]) | Activity (Mus musculus [15]) | survival at 50 mg/kg (Mus musculus [16]) | also measured
1 | CCOc1ccc(NCC(=O)N/N=C/c2ccccc2Cl)cc1 | 43% | 651 s | 12% | 8.5 s | 14% | 590 s | 1189 s | 9.3 s | 0% | 436 s | – | – | – | – | – | –
2 | CCOc1ccc(NCC(=O)N/N=C/c2ccccc2[N+](=O)[O-])cc1 | 12% | 734 s | 14% | 8.7 s | 0% | 626 s | 1011 s | 6.8 s | 14% | 275 s | – | – | – | – | – | –
3 | CCOc1ccc(NCC(=O)N/N=C/c2ccc([N+](=O)[O-])cc2)cc1 | 50% | 1286 s | 44% | 5.3 s | 16% | 885 s | 1137 s | 5.2 s | 22% | 603 s | 7.3 s | 643 s | 1528 s | 16% | 67% | Activity (Mus musculus [13]): Toxic
4 | CCOc1ccc(NCC(=O)N/N=C/c2ccccc2O)cc1 | 12% | 896 s | 0% | 11 s | 0% | 616 s | 659 s | 6.4 s | 0% | 275 s | 5.2 s | 903 s | 1055 s | 22% | 33% | –
5 | CCOc1ccc(NCC(=O)NN=C(C)C)cc1 | 0% | 606 s | 0% | 4.9 s | 0% | 425 s | 623 s | 4.2 s | 0% | 373 s | – | – | – | – | – | –
6 | CCOc1ccc(NCC(=O)N/N=C(/C)c2ccccc2)cc1 | 0% | 483 s | 0% | 5.9 s | 0% | 414 s | 310 s | 5.8 s | 0% | 243 s | – | – | – | – | – | –
7 | O=C(CNc1ccc(Br)cc1)N/N=C/c1ccccc1[N+](=O)[O-] | 38% | 1265 s | 33% | 11 s | 0% | 1073 s | 897 s | 2.8 s | 33% | 144 s | – | – | – | – | – | –
8 | O=C(CNc1ccc(Br)cc1)N/N=C/c1ccc([N+](=O)[O-])cc1 | 62% | 1456 s | 62% | 6.1 s | 0% | 809 s | 1400 s | 3.8 s | 38% | 640 s | 3.7 s | 596 s | 1122 s | 16% | 50% | –
9 | O=C(CNc1ccc(Br)cc1)N/N=C/c1ccccc1O | 100% | 1800 s | 100% | 7.7 s | 25% | 884 s | 1800 s | 6.6 s | 38% | 724 s | 8.6 s | 562 s | 832 s | 25% | 25% | –
10 | O=C(CNc1ccc(Br)cc1)N/N=C/c1ccccc1Cl | 25% | 781 s | 29% | 6.4 s | 0% | 514 s | 885 s | 4.5 s | 14% | 403 s | – | – | – | – | – | –
11 | CC(C)=NNC(=O)CNc1ccc(Br)cc1 | 25% | 1428 s | 64% | 10 s | 0% | 1098 s | 945 s | 3.3 s | 45% | 224 s | – | – | – | – | – | –
12 | C/C(=N\NC(=O)CNc1ccc(Br)cc1)c1ccccc1 | 86% | 1161 s | 50% | 11 s | 14% | 915 s | 1577 s | 3.1 s | 38% | 498 s | – | – | – | – | – | –
13 | CCCC(CCC)C(=O)[O-].[Na+] [VALPROATE SODIUM] | – | – | – | – | – | – | – | – | – | – | – | – | – | – | – | Time (Mus musculus [17]): 1207 s; Time (Mus musculus [18]): 1800 s; survival at 220 mg/kg (Mus musculus [19]): 100%; Time (Mus musculus [20]): 2.3 s; Activity (Mus musculus [21]): 50%; Activity (Mus musculus [22]): Non-toxic
